Reference: patent US6043024A, “Use of one-dimensional nuclear magnetic resonance to identify ligands to target biomolecules” (Abbott Laboratories, priority 1997, dated 2000)
Where two headings read alike, the source gives them in different places.

Columns and labels:
[1] = target: T1, FKBP (Homo sapiens, UniProt P62942); test: Screening for binding using T2-filtered one-dimensional proton NMR spectroscopy; details: FKBP 50 μM, spin-lock 200 ms, pH 6.5, 300K
Protocol: For all experiments, the T2 -filter spin-lock time was 200 ms with a spin-echo delay of 1 ms, the concentration of compound 1 was 100 μM, the concentration of FKBP was 50 μM, and the buffer was 50 mM PO4, 100 mM NaCl, pH 6.5 (95% D2 O).
For all experiments, the T2 -filter spin-lock time was 200 ms with a spin-echo delay of 1 ms, the concentration of all chemical compounds was 100 μM, the concentration of FKBP was 50 μM, and the buffer was 50 mM PO4, 100 mM NaCl, pH 6.5 (95% D2 O).
Recombinant human FK binding protein (FKBP) was prepared as described in Logan et al., J. Mol. Biol., 236: 637-648 (1994). […]
In FIG. 1A, a CPMG sequence with a spin-lock time of 200 ms is applied to the compound in the absence of FKBP. […] These differences can be detected either by direct inspection, or by a spectral differencing method in which the spectrum of […] (after the spin-lock, FIG. 1C) is subtracted from the spectrum of the compound in the presence of FKBP (also after the spin-lock, FIG. 1B), resulting in the spectrum shown in FIG. 1D. […]
(§1) All NMR spectra were recorded at 300K on a Bruker AMX500 NMR spectrometer. All spectra were recorded with 256 scans and a proton sweep width of 8333.3 Hz and a proton 90 degree pulse length of 7 μs. […] The NMR data were processed and analyzed on Silicon Graphics computers.

[2] = target: T1, FKBP; test: Screening for binding using diffusion-filtered one-dimensional proton NMR spectroscopy; details: FKBP 50 μM, gradients 3 and 48 Gauss/cm, diffusion delay 300 ms, pH 6.5, 300K
Protocol: (§2) For all experiments, low and high gradient strengths correspond to 3 and 48 Gauss/cm, respectively. The high gradient strength was sufficient to eliminate the residual HDO signal in the sample. A diffusion delay time of 300 ms was used, the concentration of all chemical compounds was 100 μM, the concentration of FKBP was 50 μM, and the buffer was 50 mM PO4, 100 mM NaCl, pH 6.5 (95% D2 O).
as §2, with “48 Gauss/cm.” for “48 Gauss/cm,”, “[…]” for “50 mM”
(§3) Recombinant human FK binding protein (FKBP) was prepared as described in Logan et al., J. Mol. Biol., 236: 637-648 (1994).
The pulse sequence employed for exploiting the changes in diffusion rates of potential ligands in the presence of the target molecule that described by S. J. Gibbs and C. S. Johnson, Jr. J. Main. Reson. […]
as §1

[3] = target: T1, FKBP; details: cited from earlier work
[4] = target: T1, FKBP; test: KD estimated from absence of observed chemical shift changes in 15N-HSQC spectra of FKBP; format: binding; details: compounds 2-9; estimated from absence of chemical shift changes in 15N-HSQC spectra at compound concentrations of 1.0 mM
Protocol: as §3
from the absence of observed chemical shift changes in ^15 N--HSQC
spectra of FKBP at compound concentrations of 1.0 mM, as described in the […]

[5] = mixture of compounds 1-9, each 100 μM

T1 sequence (P62942 whole entry): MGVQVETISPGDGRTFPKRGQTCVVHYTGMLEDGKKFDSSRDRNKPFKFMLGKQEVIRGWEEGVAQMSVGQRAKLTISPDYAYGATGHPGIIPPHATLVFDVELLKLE

Structure (SMILES) | Kd [4] [mM] | also measured
c1ccc(-c2ncc[nH]2)cc1 [Compound 1] |  | difference spectrum (FIG. 2E), T2-filtered, mixture of compounds 1-9 [1, 5]: positive peaks which correspond to the positions of the reonances of compound 1 in the absence of FKBP; ligand signals after the spin lock time in the presence of FKBP ([1]; single compound, T2-filter, compound 100 μM): significantly reduced; difference spectrum (FIG. 5E), diffusion-filtered, mixture of compounds 1-9 [2, 5]: positive resonances at the chemical shifts for compound 1 in the absence of FKBP; ligand binding detected using diffusion filters (FIGS. 4A-4E) ([2]; single compound 100 μM): demonstrated for FKBP binding to compound 1; Kd ([3]; compound 1, obtained from S. Shuker, et al., Science 274:1531-1534 (1996), read-out: KD): 0.2 mM; Kd ([3]; read-out: affinity (binds to FKBP)): 0.2 mM
O=C1CCc2ccccc2O1 [Compound 2] | > 10 | 
COc1cccc(O)c1 [Compound 3] | > 10 | 
OC(c1ccccc1)c1ccccc1 [Compound 4] | > 10 | 
Oc1cccc(O)c1 [Compound 5] | > 10 | 
Nc1cc(-c2ccco2)n[nH]1 [Compound 6] | > 10 | 

Continued, in another order:

Kd [4] [mM] | Structure (SMILES) | also measured
> 10 | COc1ccc(-c2ccc(C(=O)O)cc2)cc1 [Compound 7] | 
> 10 | O=C(O)c1ccc(-c2cccs2)s1 [Compound 8] | 
> 10 | O=c1oc2ccccc2c(O)c1-c1ccccc1 [Compound 9] | 
